Data as given in US12398111B2, “Triazine compounds and pharmaceutical use thereof” (Japan Tobacco Inc., priority 2014, dated 2025).

Molecular target: T1, human mPGES-1 (Homo sapiens, UniProt O14684)
T1 construct: made in house; host or cells: FreeStyle CHO-S cells (Chinese hamster ovary), transient transfection with pcDNA3.1(+)/human mPGES-1; microsome fraction used
T1 sequence (O14684 1-152): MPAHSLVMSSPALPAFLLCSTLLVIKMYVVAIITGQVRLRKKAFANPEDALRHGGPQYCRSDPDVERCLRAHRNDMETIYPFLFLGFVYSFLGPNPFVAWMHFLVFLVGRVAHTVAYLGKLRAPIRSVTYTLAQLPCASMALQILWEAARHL
Test: Evaluation of human mPGES-1 enzyme inhibitory activity (PGE2 measured by HTRF, microsome fraction of CHO-S cells expressing human mPGES-1)
Type: biochemical
Conditions: IC50 value; microsome fraction of CHO-S cells expressing human mPGES-1, PGE2 by HTRF
Outline: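 Enzyme source: microsomes from CHO-S cells transfected with human mPGES-1 and cultured 48 hr, diluted to 5 μg/mL protein in reduced GSH (12.5 mmol/L KPB solution). Test articles were in 0.1 mol/L potassium phosphate pH 7.4, final DMSO 2% (v/v). PGE2 formed was quantified by HTRF.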

| IC50 | SMILES |
| --- | --- |
| 17 nM | CC(C)(C(=O)NCc1ccc(Cl)c(-c2nc(O)nc(-c3ccc(OCC4CCCCC4)cc3)n2)c1)C(F)(F)F [Example 1-172] |
| 5.4 nM | CC1(C)C(C(=O)NCc2ccc(Cl)c(-c3nc(O)nc(-c4ccc(OCC5CC5)cc4)n3)c2)C1(C)C [Example 1-173] |
| 3.1 nM | Cc1ccc(C#N)c(-c2nc(O)nc(-c3ccc(C#Cc4ccccc4)cc3)n2)c1 [Example 1-174] |
| 1.3 nM | Cc1cc(-c2nc(O)nc(-c3cc(CNC(=O)C(C)(C)C(F)(F)F)ccc3Cl)n2)ccc1OCC1CC1 [Example 1-175] |
| 1.8 nM | Cc1cc(-c2nc(O)nc(-c3cc(CNC(=O)C(C)(C)C(F)(F)F)ccc3Cl)n2)cc(C)c1OCC1CC1 [Example 1-176] |
| 1.3 nM | CO[C@](C)(C(=O)NCc1ccc(Cl)c(-c2nc(O)nc(-c3ccc(CC(C)C)cc3)n2)c1)C(F)(F)F [Example 1-177] |
| 16 nM | CC1(C)CCC(Oc2ccc(-c3nc(O)nc(-c4cc(CNC(=O)C(C)(C)C(F)(F)F)ccc4Cl)n3)cc2)CC1 [Example 1-179] |
| 4.1 nM | CCCCc1ccc(-c2nc(O)nc(-c3cc(CNC(=O)C(C)(C)C(F)(F)F)ccc3Cl)n2)cc1 [Example 1-180] |
| 2.4 nM | CCCCc1ccc(-c2nc(O)nc(-c3cc(CNC(=O)[C@@](C)(OC)C(F)(F)F)ccc3Cl)n2)cc1 [Example 1-181] |
| 1.6 nM | CC(C)COc1ccc(-c2nc(O)nc(-c3cc(CNC(=O)C(C)(C)C(F)(F)F)ccc3Cl)n2)cn1 [Example 1-182] |
| 1.3 nM | Cc1cc(-c2nc(O)nc(-c3cc(CNC(=O)C(C)(C)CC(F)(F)F)ccc3Cl)n2)ccc1F [Example 1-183] |
| 1.4 nM | Cc1cc(-c2nc(O)nc(-c3cc(CNC(=O)C(C)(C)C(F)(F)F)ccc3Cl)n2)ccc1F [Example 1-186] |
| 5.3 nM | CC(C)(C)COc1ccc(-c2nc(O)nc(-c3cc(CO)ccc3Cl)n2)cc1 [Example 1-187] |
| 47 nM | CN(C)C(=O)OCc1ccc(Cl)c(-c2nc(O)nc(-c3ccc(OCC4CC4)cc3)n2)c1 [Example 1-190] |
| 15 nM | CC(C)(C(=O)NCc1ccc(Cl)c(-c2nc(O)nc(-c3ccc(C#CC4CCCCC4)cc3)n2)c1)C(F)(F)F [Example 1-191] |
| 8700 nM | NC(=O)c1ccc(Cl)c(-c2nc(O)nc(-c3ccc(OCC4CC4)cc3)n2)c1 [Example 1-193] |
| 10500 nM | CNC(=O)c1ccc(Cl)c(-c2nc(O)nc(-c3ccc(OCC4CC4)cc3)n2)c1 [Example 1-194] |
| 6000 nM | CN(C)C(=O)c1ccc(Cl)c(-c2nc(O)nc(-c3ccc(OCC4CC4)cc3)n2)c1 [Example 1-195] |
| 42 nM | CN(Cc1ccc(Cl)c(-c2nc(O)nc(-c3ccc(OCC(C)(C)C)cc3)n2)c1)C(=O)C(C)(C)C(F)(F)F [Example 1-196] |
| 289 nM | COCc1ccc(Cl)c(-c2nc(O)nc(-c3ccc(OCC(C)(C)C)cc3)n2)c1 [Example 1-197] |
| 14 nM | CC(C)(C)COc1ccc(-c2nc(O)nc(-c3cc(CCO)ccc3Cl)n2)cc1 [Example 1-198] |
| 31 nM | COCCc1ccc(Cl)c(-c2nc(O)nc(-c3ccc(OCC(C)(C)C)cc3)n2)c1 [Example 1-199] |
| 8.2 nM | CC(C)(C(=O)NCc1ccc(Cl)c(-c2nc(O)nc(-c3ccccc3)n2)c1)c1ccccc1 [Example 1-202] |
| 20 nM | CC(C)(C)COc1ccc(-c2nc(O)nc(-c3cc(CCNC(=O)C(C)(C)C(F)(F)F)ccc3Cl)n2)cc1 [Example 1-203] |
| 34 nM | CC(C)COCc1ccc(Cl)c(-c2nc(O)nc(-c3ccc(OCC(C)(C)C)cc3)n2)c1 [Example 1-204] |
| 367 nM | CCCCc1ccc(Cl)c(-c2nc(O)nc(-c3ccc(OCC(C)(C)C)cc3)n2)c1 [Example 1-205] |
| 14 nM | CC(C)Cc1ccc(-c2nc(O)nc(-c3cc(CN(C)C(=O)C(C)(C)C(F)(F)F)ccc3Cl)n2)cc1 [Example 1-206] |
| 4.3 nM | CC(C)(C)COc1ccc(-c2nc(O)nc(-c3cc(CO)ccc3C(F)(F)F)n2)cc1 [Example 1-207] |
| 16 nM | CC(C)(C)COc1ccc(-c2nc(O)nc(-c3cc(CNC(=O)C(C)(C)C(F)(F)F)ccc3C(F)(F)F)n2)cc1 [Example 1-208] |

Second part, the compound before the results:

| SMILES | IC50 |
| --- | --- |
| Cc1cc(-c2nc(O)nc(-c3cc(CNC(=O)C4(C(F)(F)F)CC4)ccc3Cl)n2)ccc1F [Example 1-127] | 0.8 nM |
| CCOc1ccc(-c2nc(O)nc(-c3cc(CNC(=O)C(C)(C)C(F)(F)F)ccc3Cl)n2)cc1 [Example 1-132] | 0.3 nM |
| CC(C)(C(=O)NCc1ccc(Cl)c(-c2nc(O)nc(-c3ccc(OCC4CC4)cc3)n2)c1)C(F)(F)F [Example 1-133] | 0.5 nM |
| CC(C)(C(=O)NCc1ccc(Cl)c(-c2nc(O)nc(-c3ccc(O)cc3)n2)c1)C(F)(F)F [Example 1-134] | 4 nM |
| CO[C@](C)(C(=O)NCc1ccc(Cl)c(-c2nc(O)nc(-c3ccc(C(C)(F)F)cc3)n2)c1)C(F)(F)F [Example 1-138] | 0.5 nM |
| COc1ccc(-c2nc(O)nc(-c3cc(CNC(=O)C(C)(C)C(F)(F)F)ccc3Cl)n2)cc1 [Example 1-139] | 0.6 nM |
| CC(C)Oc1ccc(-c2nc(O)nc(-c3cc(CNC(=O)C(C)(C)C(F)(F)F)ccc3Cl)n2)cc1 [Example 1-140] | 0.5 nM |
| CC(C)(C(=O)NCc1ccc(Cl)c(-c2nc(O)nc(-c3ccc(OC4CCC4)cc3)n2)c1)C(F)(F)F [Example 1-141] | 1.1 nM |
| CC(C)(C(=O)NCc1ccc(Cl)c(-c2nc(O)nc(-c3ccc(OCCC(F)(F)F)cc3)n2)c1)C(F)(F)F [Example 1-142] | 0.5 nM |
| CC1(COc2ccc(-c3nc(O)nc(-c4cc(CNC(=O)C(C)(C)C(F)(F)F)ccc4Cl)n3)cc2)CCC1 [Example 1-143] | 1 nM |
| COCCOc1ccc(-c2nc(O)nc(-c3cc(CNC(=O)C(C)(C)C(F)(F)F)ccc3Cl)n2)cc1 [Example 1-144] | 0.9 nM |
| CCC1(COc2ccc(-c3nc(O)nc(-c4cc(CNC(=O)C(C)(C)C(F)(F)F)ccc4Cl)n3)cc2)COC1 [Example 1-145] | 0.5 nM |
| CC#CCOc1ccc(-c2nc(O)nc(-c3cc(CNC(=O)C(C)(C)C(F)(F)F)ccc3Cl)n2)cc1 [Example 1-146] | 0.4 nM |
| Cc1cc(-c2nc(O)nc(-c3cc(CNC(=O)C(C)(C)C(F)(F)F)ccc3Cl)n2)ccc1C(F)(F)F [Example 1-147] | 0.8 nM |
| CO[C@](C)(C(=O)NCc1ccc(Cl)c(-c2nc(O)nc(-c3ccc(C(F)(F)F)c(C)c3)n2)c1)C(F)(F)F [Example 1-148] | 1.7 nM |
| Cc1cc(-c2nc(O)nc(-c3cc(CNC(=O)C4(C(F)(F)F)CC4)ccc3Cl)n2)ccc1C(F)(F)F [Example 1-149] | 0.8 nM |
| CCc1cc(-c2nc(O)nc(-c3cc(CNC(=O)[C@@](C)(OC)C(F)(F)F)ccc3Cl)n2)ccc1F [Example 1-151] | 0.4 nM |
| CCc1cc(-c2nc(O)nc(-c3cc(CNC(=O)C4(C(F)(F)F)CC4)ccc3Cl)n2)ccc1F [Example 1-152] | 0.4 nM |

| SMILES | IC50 |
| --- | --- |
| CC(C)(C(=O)NCc1ccc(Cl)c(-c2nc(O)nc(-c3ccc(F)c(Cl)c3)n2)c1)C(F)(F)F [Example 1-153] | 0.5 nM |
| CCCOc1ccc(-c2nc(O)nc(-c3cc(CNC(=O)C4(C(F)(F)F)CC4)ccc3Cl)n2)cc1 [Example 1-154] | 0.5 nM |
| CCC[C@H](C)Oc1ccc(-c2nc(O)nc(-c3cc(CNC(=O)C(C)(C)C(F)(F)F)ccc3Cl)n2)cc1 [Example 1-155] | 3.5 nM |
| CCC[C@@H](C)Oc1ccc(-c2nc(O)nc(-c3cc(CNC(=O)C(C)(C)C(F)(F)F)ccc3Cl)n2)cc1 [Example 1-156] | 4.1 nM |
| O=C(NCc1ccc(Cl)c(-c2nc(O)nc(-c3ccc(F)c(C4CC4)c3)n2)c1)C1(C(F)(F)F)CC1 [Example 1-157] | 0.7 nM |
| CCCOc1ccc(-c2nc(O)nc(-c3cc(CN4CC(C)(C)C4=O)ccc3Cl)n2)cc1 [Example 1-158] | 12 nM |
| CC(C)(C(=O)NCc1ccc(Cl)c(-c2nc(O)nc(-c3cccc(C4CC4)c3)n2)c1)C(F)(F)F [Example 1-159] | 0.7 nM |
| O=C(NCc1ccc(Cl)c(-c2nc(O)nc(-c3cccc(C4CC4)c3)n2)c1)C1(C(F)(F)F)CC1 [Example 1-160] | 1.4 nM |
| CCOc1ccc(-c2nc(O)nc(-c3cc(CNC(=O)C(C)(C)C(F)(F)F)ccc3Cl)n2)c(C)c1 [Example 1-161] | 1.3 nM |
| CO[C@](C)(C(=O)NCc1ccc(Cl)c(-c2nc(O)nc(-c3ccc(OCC4CC4)cc3)n2)c1)C(F)(F)F [Example 1-162] | 1.2 nM |
| O=C(NCc1ccc(Cl)c(-c2nc(O)nc(-c3ccc(OCC4CC4)cc3)n2)c1)C1(C(F)(F)F)CC1 [Example 1-163] | 1 nM |
| CC(C)(C(=O)NCc1ccc(Cl)c(-c2nc(O)nc(-c3ccc(OCC4(C(F)(F)F)CC4)cc3)n2)c1)C(F)(F)F [Example 1-164] | 3.7 nM |
| CO[C@](C)(C(=O)NCc1ccc(Cl)c(-c2nc(O)nc(-c3ccc(F)c(C4CC4)c3)n2)c1)C(F)(F)F [Example 1-165] | 0.9 nM |
| CC(C)(CC(F)(F)F)C(=O)NCc1ccc(Cl)c(-c2nc(O)nc(-c3ccc(OCC4CC4)cc3)n2)c1 [Example 1-166] | 1.1 nM |
| CC(C)(C(=O)NCc1ccc(Cl)c(-c2nc(O)nc(-c3ccc(OCCC4CC4)cc3)n2)c1)C(F)(F)F [Example 1-167] | 1.9 nM |
| CC1(C)CC(C(=O)NCc2ccc(Cl)c(-c3nc(O)nc(-c4ccc(OCC5CC5)cc4)n3)c2)C1 [Example 1-168] | 2.1 nM |
| O=C(NCc1ccc(Cl)c(-c2nc(O)nc(-c3ccc(OCC4CC4)cc3)n2)c1)C1CCC(F)(F)CC1 [Example 1-170] | 1.5 nM |
| CCC(CC)C(=O)NCc1ccc(Cl)c(-c2nc(O)nc(-c3ccc(OCC4CC4)cc3)n2)c1 [Example 1-171] | 0.5 nM |

Same assay, conditions: at 30 μM test article

| inhibition at 30 µM | SMILES |
| --- | --- |
| 41% | O=C(O)c1ccc(Cl)c(-c2nc(O)nc(-c3ccc(OCC4CC4)cc3)n2)c1 [Example 1-192] |
